System: mucositis induced by the administration of 5-FU in hamsters
Experiment: 5-fluorouracil plus mechanical irritation induced oral mucositis model, cheek pouch
Assay type: in vivo, Golden Syrian hamsters
From the text: An animal model for studying the acute effects of chemotherapy and radiotherapy in the oral cavity was developed by Dr. Stephen T. Sonis at Brigham and Women's Hospital, Boston, Mass. This model was particularly suited for testing the efficacy of growth factors on chemotherapy mucositis. This model utilizes an acute regimen of 5-fluorouracil (5-FU) combined with mechanical irritation to induce mucositis. More specifically, intraperitoneal (i.p.) injections of 5-fluorouracil were combined with superficial mechanical mucosal irritation to result in clinical breakdown of the oral mucosa as characterized by ulcerative mucositis in Golden Syrian hamsters. […] For these reasons, it was believed that this model would be extremely beneficial in evaluating growth factors to treat mucositis.
The following experiment was performed to determine the effects of growth factors, specifically TGF-α, on the prevention and healing of mucositis induced by the administration of 5-FU in hamsters. Example 1:
One hundred young male Golden Syrian hamsters were divided into four groups of 25 animals each. Beginning on day 0, animals received twice daily dosing of their cheek pouch buccal mucosa as follows:
Medication was applied in a volume of 0.2 ml of Orabase per cheek pouch. The right cheek pouch was mechanically irritated by superficial scratching starting at day 0, daily until erythematous changes were noted. For most animals, such changes were noted by day 2 and mechanical irritation discontinued. For the remaining animals, mechanical irritation was stopped at day 3. Beginning on day 0, all of the animals received i.p. injections of 5-FU at a dose of 60 mg/kg body weight, with additional dosing on days 5 and 10. The animals were observed and weighed daily. On days 2, 4, 6, 8, 10, 12, 14, 16, 18 and 20, two animals were randomly sacrificed in each group. Cheek pouches were biopsied. The tissue was then placed in 10% formalin for histologic study according to established methods, and subsequently stained with hematoxylin and eosin. The following parameters were evaluated and scored: inflammatory infiltrate, degree of epithelial atropy, extent of epithelial breakdown/ulceration, mitotic activity at would margins and evidence of superficial/secondary infection. Two randomly selected hamsters from each group had their cheek pouches photographed daily. The animals were weighed and observed daily. […] Mucositis was scored using the following established scale:
Grade 0--no evidence of ulcers or mucositis
Grade 1--erythema but no ulceration
Grade 2--1 or 2 small (<2 mm), single ulcers
Grade 3--1 large or 3 or more small ulcers
Grade 4--multiple large ulcers and/or involvement of 50% of pouch mucosal surface area
The animals were evaluated both for the ability of TGF-α to delay the onset and reduce the severity of mucositis. The data presented here are based upon clinical observations. Histologic evaluation of biopsied cheek pouches corroborated these observations.

## transforming growth factor-alpha [TGF-α]
Group III, TGF-α in Orabase 2 μg/dose (low dose), twice daily, compared among groups
  averaged mucositis grades (severity of mucositis): best results
Group III, TGF-α in Orabase 2 μg/dose, twice daily
  development of grade 3/4 mucositis: did not develop
Group IV, TGF-α in Orabase 20 μg/dose, twice daily
  day of development of grade 3/4 mucositis: 9 days
TGF-α groups vs Group I (none) and Group II (Orabase only)
  onset of mucositis (development of grade 3 and 4 mucositis): delayed the onset of mucositis
Groups receiving TGF-α in Orabase (2 or 20 μg/dose), topical to cheek pouch twice daily, 18 day period, vs control groups
  averaged mucositis grades (severity of mucositis): lower overall scores

Source: patent publication US5102870A, “Treatment and prevention of oral mucositis with growth factors” (Schering AG, priority 1989, dated 1992)
